According to patent US20200163943A1, “METHODS FOR TREATING DRAVET SYNDROME” (Cavion, Inc., priority 2017, published 2020):

Legend:
α1I [1] = target: T1, α1I (Homo sapiens, UniProt Q9P0X4); assay: α1I potency; format: cell-based
α1I + Kir = α1I + Kir (Homo sapiens, UniProt Q9P0X4); assay: α1I + Kir potency; format: cell-based
α1I [2] = target: T1, α1I; assay: α1I VC (voltage clamp) at set holding potentials; format: cell-based
hERG = hERG (Homo sapiens, UniProt Q12809); assay: hERG counter-screen; format: biochemical
L-Type = L-Type calcium channel counter-screen; format: biochemical
N-Type = N-Type (Homo sapiens, UniProt Q00975); assay: N-Type calcium channel counter-screen; format: biochemical
Na Channel = Na Channel counter-screen; format: biochemical
Panlabs = Panlabs selectivity panel
PGP = PGP (Homo sapiens, UniProt P08183); assay: PGP substrate assay; format: in vitro ADME
Papp permeability = format: in vitro ADME; settings: not told
WAG/Rij = WAG/Rij in vivo model; settings: 10 mpk, @4 hr
Pharmacokinetics in rat = format: in vivo
Pharmacokinetics in dog = format: in vivo
[3] = Pharmacokinetics in monkey; format: in vivo
[4] = plasma, 10 mg/kg, PO (1% methylcellulose), 10 mpk
[5] = plasma, 1 mg/kg, PO (1% methylcellulose), 1 mpk
[6] = plasma, 3 mg/kg, PO (1% methylcellulose), 3 mpk

T1 sequence (Q9P0X4 whole entry): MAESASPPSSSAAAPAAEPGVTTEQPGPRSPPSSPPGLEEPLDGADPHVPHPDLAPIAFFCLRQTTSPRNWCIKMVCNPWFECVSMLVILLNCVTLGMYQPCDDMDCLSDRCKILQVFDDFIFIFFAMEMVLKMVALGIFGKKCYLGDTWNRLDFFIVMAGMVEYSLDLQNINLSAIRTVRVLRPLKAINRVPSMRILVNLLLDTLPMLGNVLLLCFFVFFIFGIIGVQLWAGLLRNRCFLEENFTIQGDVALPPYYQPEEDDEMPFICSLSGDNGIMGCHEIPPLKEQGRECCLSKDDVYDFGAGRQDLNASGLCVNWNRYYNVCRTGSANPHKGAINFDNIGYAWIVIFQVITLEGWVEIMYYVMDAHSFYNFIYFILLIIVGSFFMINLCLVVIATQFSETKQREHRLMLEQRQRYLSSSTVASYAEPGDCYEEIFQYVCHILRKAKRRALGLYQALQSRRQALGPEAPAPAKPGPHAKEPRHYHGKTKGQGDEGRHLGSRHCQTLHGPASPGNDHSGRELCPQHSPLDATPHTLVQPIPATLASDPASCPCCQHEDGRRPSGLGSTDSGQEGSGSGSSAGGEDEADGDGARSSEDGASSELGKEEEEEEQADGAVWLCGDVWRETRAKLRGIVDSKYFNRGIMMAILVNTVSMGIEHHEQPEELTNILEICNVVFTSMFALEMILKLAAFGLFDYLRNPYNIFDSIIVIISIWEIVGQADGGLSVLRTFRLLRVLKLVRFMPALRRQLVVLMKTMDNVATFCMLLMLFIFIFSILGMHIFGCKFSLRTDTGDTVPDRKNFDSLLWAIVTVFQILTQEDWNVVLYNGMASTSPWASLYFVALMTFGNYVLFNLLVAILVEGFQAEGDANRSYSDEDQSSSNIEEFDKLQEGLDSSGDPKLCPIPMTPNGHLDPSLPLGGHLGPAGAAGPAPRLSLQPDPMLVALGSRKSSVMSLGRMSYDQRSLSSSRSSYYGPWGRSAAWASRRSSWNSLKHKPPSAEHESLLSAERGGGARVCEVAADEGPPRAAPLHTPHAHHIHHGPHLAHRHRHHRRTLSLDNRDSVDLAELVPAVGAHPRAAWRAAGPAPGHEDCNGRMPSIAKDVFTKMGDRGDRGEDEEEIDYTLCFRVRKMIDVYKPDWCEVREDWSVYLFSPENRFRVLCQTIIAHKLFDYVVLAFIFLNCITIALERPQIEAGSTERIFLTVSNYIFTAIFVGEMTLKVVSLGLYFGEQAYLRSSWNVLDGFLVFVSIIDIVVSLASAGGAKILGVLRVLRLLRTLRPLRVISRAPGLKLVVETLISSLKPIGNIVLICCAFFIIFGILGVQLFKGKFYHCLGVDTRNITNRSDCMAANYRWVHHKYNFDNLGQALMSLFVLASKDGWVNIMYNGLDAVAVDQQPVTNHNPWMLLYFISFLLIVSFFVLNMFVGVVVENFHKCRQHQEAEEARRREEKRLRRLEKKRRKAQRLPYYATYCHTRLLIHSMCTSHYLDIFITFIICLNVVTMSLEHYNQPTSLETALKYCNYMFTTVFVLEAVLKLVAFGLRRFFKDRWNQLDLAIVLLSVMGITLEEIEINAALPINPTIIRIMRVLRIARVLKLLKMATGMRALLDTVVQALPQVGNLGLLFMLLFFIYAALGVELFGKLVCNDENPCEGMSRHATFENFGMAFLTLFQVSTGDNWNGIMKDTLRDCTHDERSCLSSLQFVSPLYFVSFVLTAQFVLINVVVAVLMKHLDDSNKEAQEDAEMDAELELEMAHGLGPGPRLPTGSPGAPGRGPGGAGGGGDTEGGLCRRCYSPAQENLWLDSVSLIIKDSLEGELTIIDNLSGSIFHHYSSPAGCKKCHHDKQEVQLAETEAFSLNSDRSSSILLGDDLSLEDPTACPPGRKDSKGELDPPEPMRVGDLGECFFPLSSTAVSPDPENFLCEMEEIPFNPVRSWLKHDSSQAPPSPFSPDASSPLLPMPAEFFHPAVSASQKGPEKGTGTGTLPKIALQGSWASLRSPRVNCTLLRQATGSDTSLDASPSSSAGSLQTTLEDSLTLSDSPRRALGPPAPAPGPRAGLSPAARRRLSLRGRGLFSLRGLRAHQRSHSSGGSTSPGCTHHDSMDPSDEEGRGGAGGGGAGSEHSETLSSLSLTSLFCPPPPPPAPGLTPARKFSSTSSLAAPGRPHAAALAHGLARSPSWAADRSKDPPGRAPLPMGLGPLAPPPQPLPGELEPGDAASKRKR
Chain of PGP (P08183 whole entry): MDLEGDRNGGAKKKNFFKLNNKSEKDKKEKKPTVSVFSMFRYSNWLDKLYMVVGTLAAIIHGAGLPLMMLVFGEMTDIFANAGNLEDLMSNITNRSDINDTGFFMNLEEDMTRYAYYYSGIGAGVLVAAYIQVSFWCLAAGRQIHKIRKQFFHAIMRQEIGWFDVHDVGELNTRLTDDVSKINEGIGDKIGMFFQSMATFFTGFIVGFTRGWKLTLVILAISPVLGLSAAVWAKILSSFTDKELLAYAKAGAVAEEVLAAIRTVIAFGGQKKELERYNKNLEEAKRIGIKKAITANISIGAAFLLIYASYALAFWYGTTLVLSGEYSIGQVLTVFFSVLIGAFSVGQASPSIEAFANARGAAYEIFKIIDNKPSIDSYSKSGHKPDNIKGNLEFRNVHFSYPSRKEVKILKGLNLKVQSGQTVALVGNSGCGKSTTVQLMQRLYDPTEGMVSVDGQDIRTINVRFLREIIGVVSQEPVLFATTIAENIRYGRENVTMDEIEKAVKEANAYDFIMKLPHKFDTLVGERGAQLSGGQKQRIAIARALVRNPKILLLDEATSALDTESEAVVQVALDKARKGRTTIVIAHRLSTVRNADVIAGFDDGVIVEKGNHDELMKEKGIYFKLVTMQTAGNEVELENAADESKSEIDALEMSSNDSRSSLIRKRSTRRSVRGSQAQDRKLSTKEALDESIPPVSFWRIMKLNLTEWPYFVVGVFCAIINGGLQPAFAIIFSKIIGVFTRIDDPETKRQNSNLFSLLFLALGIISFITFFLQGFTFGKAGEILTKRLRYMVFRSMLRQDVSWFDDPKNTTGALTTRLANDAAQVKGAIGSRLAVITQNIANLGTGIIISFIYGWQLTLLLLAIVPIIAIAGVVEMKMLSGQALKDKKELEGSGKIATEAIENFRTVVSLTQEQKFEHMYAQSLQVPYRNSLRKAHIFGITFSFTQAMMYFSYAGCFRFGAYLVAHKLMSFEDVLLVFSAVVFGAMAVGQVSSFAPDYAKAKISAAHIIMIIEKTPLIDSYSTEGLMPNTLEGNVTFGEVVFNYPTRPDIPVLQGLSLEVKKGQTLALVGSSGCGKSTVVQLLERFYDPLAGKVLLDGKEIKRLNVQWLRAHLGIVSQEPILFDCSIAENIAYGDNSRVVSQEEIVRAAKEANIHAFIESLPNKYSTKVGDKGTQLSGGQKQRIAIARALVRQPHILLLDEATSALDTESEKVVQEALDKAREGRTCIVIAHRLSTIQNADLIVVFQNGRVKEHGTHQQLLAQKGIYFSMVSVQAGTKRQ
Chain of α1I + Kir (Q9P0X4 whole entry): as the sequence (Q9P0X4 whole entry) above
Chain of hERG (Q12809 whole entry): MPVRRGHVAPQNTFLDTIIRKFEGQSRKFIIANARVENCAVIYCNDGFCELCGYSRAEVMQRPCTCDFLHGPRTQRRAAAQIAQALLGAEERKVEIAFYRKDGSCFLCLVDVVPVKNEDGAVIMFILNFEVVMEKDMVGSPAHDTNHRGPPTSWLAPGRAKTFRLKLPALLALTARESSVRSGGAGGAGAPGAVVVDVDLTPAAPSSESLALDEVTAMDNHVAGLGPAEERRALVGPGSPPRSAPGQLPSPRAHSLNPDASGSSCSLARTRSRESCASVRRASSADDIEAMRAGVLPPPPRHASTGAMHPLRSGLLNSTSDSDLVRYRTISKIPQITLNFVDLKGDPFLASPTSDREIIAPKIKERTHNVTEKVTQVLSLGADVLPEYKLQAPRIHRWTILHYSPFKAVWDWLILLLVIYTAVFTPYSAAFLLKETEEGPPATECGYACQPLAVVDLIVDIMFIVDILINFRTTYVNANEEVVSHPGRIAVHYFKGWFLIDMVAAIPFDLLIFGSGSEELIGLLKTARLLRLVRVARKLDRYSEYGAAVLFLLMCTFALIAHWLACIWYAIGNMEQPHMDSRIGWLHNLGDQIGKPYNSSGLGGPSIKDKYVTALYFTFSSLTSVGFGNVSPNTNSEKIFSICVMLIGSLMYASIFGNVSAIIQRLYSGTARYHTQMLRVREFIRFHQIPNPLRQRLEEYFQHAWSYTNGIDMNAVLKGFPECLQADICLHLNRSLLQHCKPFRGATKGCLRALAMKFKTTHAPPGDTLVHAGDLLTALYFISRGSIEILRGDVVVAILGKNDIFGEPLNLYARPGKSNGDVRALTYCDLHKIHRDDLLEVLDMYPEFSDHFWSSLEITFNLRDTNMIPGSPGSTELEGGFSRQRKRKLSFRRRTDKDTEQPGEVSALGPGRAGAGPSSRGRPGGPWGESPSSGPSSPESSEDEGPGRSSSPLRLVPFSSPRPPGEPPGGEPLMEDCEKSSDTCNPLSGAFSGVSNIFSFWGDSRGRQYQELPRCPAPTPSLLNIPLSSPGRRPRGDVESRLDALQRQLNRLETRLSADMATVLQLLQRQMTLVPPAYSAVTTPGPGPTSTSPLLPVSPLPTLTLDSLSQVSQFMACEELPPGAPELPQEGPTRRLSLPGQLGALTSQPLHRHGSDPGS

Q: Which IC50 (α1I [1]) does the source give for C[C@@H](NC(=O)Cc1ccc(C2CC2)cc1)c1ccc(OCC(F)(F)F)cn1 [TTA-A2] here?
A: The IC50 was 0.009 µM.

Q: And the IC50 (α1I + Kir)?
A: Its IC50 is 0.296 µM.

Q: What about the IC50 (α1I [2]; −80 mV, read-out: a1I VC (−80 mV)) of the same compound?
A: Its IC50 is 0.098 µM.

Q: What about the IC50 (α1I [2]; −100 mV, read-out: α1I VC (−100 mV)) of the same compound?
A: Its IC50 is 4.2 µM.

Q: What about the IC50 (hERG) of the same compound?
A: Its IC50 is > 10 µM.

Q: What about the IC50 (L-Type) of the same compound?
A: Its IC50 is > 10 µM.

Q: And the IC50 (N-Type)?
A: The IC50 was > 10 µM.

Q: What about the IC50 (Na Channel) of the same compound?
A: The IC50 was > 10 µM.

Q: What about the “Panlabs hits >50% @10 uM” value (Panlabs) of the same compound?
A: The value was 0 hits >50% @10 uM.

Q: And the PGP (PGP)?
A: Its PGP is 0.7.

Q: What about the Papp (Papp permeability) of the same compound?
A: The Papp was 490 ×10⁻⁶ cm/s.

Q: And the WAG/Rij inhibition (WAG/Rij)?
A: The WAG/Rij inhibition was 87% inhibition@4 hr.

Q: And the Clp (Pharmacokinetics in rat; IV (DMSO))?
A: The Clp was 6 mL/min/kg.

Q: What about the F (Pharmacokinetics in rat; PO (1% methylcellulose), 10 mpk) of the same compound?
A: Its F is 68%.

Q: What about the AUC (Pharmacokinetics in rat; [4]) of the same compound?
A: Its AUC is 46 µM·h.

Q: And the Cmax (Pharmacokinetics in rat; [4])?
A: The Cmax was 7600 nM.

Q: What about the half-life (Pharmacokinetics in rat; plasma, IV (DMSO)) of the same compound?
A: Its half-life is 1.6 h.

Q: And the Clp (Pharmacokinetics in dog; IV (DMSO))?
A: The Clp was 0.9 mL/min/kg.

Q: What about the T1/2 (Pharmacokinetics in dog; IV (DMSO)) of the same compound?
A: Its T1/2 is 11 h.

Q: What about the F (Pharmacokinetics in dog; PO (1% methylcellulose), 1 mpk) of the same compound?
A: The F was 43%.

Q: And the AUC (Pharmacokinetics in dog; [5])?
A: The AUC was 23 µM·h.

Q: And the Cmax (Pharmacokinetics in dog; [5])?
A: Its Cmax is 2100 nM.

Q: And the Clp ([3]; IV (DMSO))?
A: The Clp was 17 mL/min/kg.

Q: And the T1/2 ([3]; IV (DMSO))?
A: The T1/2 was 0.9 h.

Q: What about the F ([3]; PO (1% methylcellulose), 3 mpk) of the same compound?
A: The F was 7%.

Q: What about the AUC [3, 6] of the same compound?
A: Its AUC is 0.6 µM·h.

Q: And the Cmax [3, 6]?
A: Its Cmax is 300 nM.
